# Assay results: patent US12544400B2, “Treatment of myopic progression” (University of Utah Research Foundation, priority 2018, dated 2026)
# Key:
# rabbits = test: safety of copper eye drops in vivo (ERG, slit-lamp, AS-OCT, histology); set-up: species or system rabbit; details: 0.0025 mg/ml TID or QD, 6 weeks
# Description: Copper sulfate (CuSO4) pentahydrate solution was prepared at a concentration of 0.0025 mg/ml and administered three times a day (TID) or once a day (QD) to rabbits. An anterior segment evaluation was performed with slit-lamp biomicroscopy and Heidelberg Spectralis anterior segment optical coherence tomography (AS-OCT). Two rabbits (n=4 eyes) were sacrificed at each of day 1, week 1, week 4, and week 6 for copper levels in eye tissues and compared to control (no drops) rabbits. Aqueous humor, vitreous, retina, cornea, lens, and blood samples were analyzed for copper ions using inductively coupled plasma mass spectrometry (ICP-MS).
# Rabbits (n=2) were sacrificed after 42 days by intravenous injection of 0.3 ml/kg euthanasia solution and the eyes were enucleated for histological evaluations and reading for signs of inflammation, tissue damage, scarring and fibrosis. The anterior section of the eyes were fixed in 10% formaldehyde-glutaraldehyde solution, dehydrated in a graded series of alcohol, embedded in paraffin, and sectioned with a microtome. The sections were stained with appropriate staining (hematoxylin and eosin and Masson Trichrome).
# [1] = test system: New Zealand white rabbits; test: rabbit corneal topography (diopter measurements); format: in vivo; details: 0.0025 mg/ml once or three times per day or 0.025 mg/ml once per day, 5 weeks; controls no drops, BSS, artificial tears; FIG. 4
# Description: Copper sulfate pentahydrate (CuSO4) at 0.0025 mg/ml was administered to New Zealand white rabbits at a dose of once per day and three times per day. Additionally, a high concentration sample of 0.025 mg/ml CuSO4 pentahydrate was administered to New Zealand with rabbits once per day during the treatment period. Three different controls were administered either no drops, BSS, or artificial tears. Each of the 6 groups included 6 test subjects each. Topography images were taken before treatment and weekly for 5 weeks. Diopter measurements were the mean K values and at 3 mm. These values were compared to diopter measurements in laser cross-linked corneas after 1 month and 1 year.
# rabbit corneas = test: cornea radial strain / corneal biomechanics, rabbit corneas after eye drop treatment; format: in vivo; details: CuSO4 pentahydrate 0.0025 mg/ml once or three times per day; compared with laser cross-linking; FIG. 3
# Description: (§1) Cornea radial strain measurements were performed on human cadaver corneas and on rabbit corneas. Human cadaver corneas (n=2 pairs) were cultured as previously mentioned in Example 1. The treated group was immersed in 0.0016 mg/ml CuSO4 for 2 weeks. The samples also contained a small portion of sclera at both ends. Mineral oil was applied on the surface of the sclera-cornea-sclera strip to minimize tissue dehydration. Rabbit corneas were divided into 4 groups. Two groups were treatment groups receiving either CuSO4 pentahydrate 0.0025 mg/ml three times per day or CuSO4 pentahydrate 0.0025 mg/ml once per day. Two groups served as control receiving only BSS.
# (§2) The sample was coupled between a motor and a transducer that applied a controlled pressure from 5-30 mmHg and measured the resultant radial strain. The sample length between the two gripping jaws was approximately 10 mm. Sample geometric information, including width and thickness, was input into the Rheometrics System Analyzer (RSA) control panel. Sample thickness was measured by an ultrasound pachymeter (DGH 550 Pa-chette2; DGH Technology, Exton, PA).
# human cadaver corneas = test: cornea radial strain measurement, human cadaver corneas immersed in CuSO4
# Description: as §1, §2
# lysyl oxidase (LOX) = test: peroxidase-coupled fluorometric lysyl oxidase activity assay on conditioned medium of cultured corneal stroma cells; format: cell-based; details: 0.0016 mg/mL CuSO4 in BSS vs BSS control, fibroblast cells from normal corneas and corneas having low corneal stiffness, FIGS. 1A-1B
# Description: Cultured corneal stroma cells from normal corneas and corneas having low corneal stiffness (n=3 each) in 10% FBS DMEM were either exposed to BSS control or 0.0016 mg/mL CuSO4 in balanced salt solution (BSS) then filtered through a 0.25 μm filter. Conditioned culture medium underwent a peroxidase-coupled fluorometric activity assay for lysyl oxidase (LOX).
# Tissues were collected under sterile techniques in an operative setting. Tissue samples were stored in a 10 cm tissue culture dish in an Optisol solution. Corneal tissue was suspended in 15% fetal bovine serum (FBS) DMEM/F12 with penicillin/streptomycin. Epithelium and Descemet's membrane were removed mechanically under a stereo microscope. The samples were further cut into small pieces by a surgical scissor, and added to 1 mg/mL collagenase; 10 mL per cornea was used. The sample pieces were plated to a 10 cm tissue culture dish and placed in a tissue culture incubator at 37° C. with 5% CO2. After 5 days, the cells were harvested and plated in 10% FBS DMEM without phenol red.
# LOX enzyme activity in culture medium was measured using a peroxidase-coupled fluorometric assay using Amplex red. […] The fluorescence of oxidized Amplex red was recorded every 10 minutes using fluorescence plate reader. After subtracting the background fluorescence, the fluorescence intensity was plotted against the incubation time (FIGS. 1A and 1B).
# New Zealand white rabbit [2] = details: 0.0025 mg/ml 3 times per day for 6 weeks vs vehicle and control groups; FIG. 8
# Description: New Zealand white rabbit right eyes were separated (n=6 per group) into treatment group (0.0025 mg/ml CuSO4 pentahydrate in phosphate buffered ophthalmic solution), vehicle group (phosphate buffered ophthalmic solution), and control group (no drops). Drops were administered 3 times per day for 6 weeks in treatment eyes. Animals were followed weekly for TOP measurements, topography and ocular response analyzer. At the end of the 6 weeks, rabbits were sacrificed and eye was immediately dissected within 30 minutes of sacrifice. Recovered corneas weight was recorded. Samples were reduced with NaBH4 at room temperature then washed with water twice, dried, and hydrolyzed with 6N HCl in vacuo for 18 hours at 110° C. Post hydrolysis, cross-link enrichment was carried out by using a cellulose mini-column method. LNL was measured by mass spectroscopy.
# albino guinea pigs = test system: albino guinea pigs
# Description: Progressive myopia occurs more often in albino guinea pigs than in their wild type counterparts, even without imposing diffusers or lenses. Guinea pigs were subjected to a cycle of 12 hours of light/12 hours of dark. An eye drop including 0.0025 mg/ml CuSO4 pentahydrate in phosphate buffered ophthalmic solution was administered at approximately 2 weeks of age to the right eyes (OD) of albino guinea pigs (n=4). Left eyes (OS) received control drops (ophthalmic vehicle only). Eye drops (approximately 30 μL) were administered 3 times per day for approximately 6 weeks. Refractive error was measured by a pediatric ophthalmologist prior to treatment on day 1 and at subsequent timepoints according to the schedule depicted in FIGS. 7A-7B. […] FIGS. 7A-7B present average refractive error measurements for the test subjects in each eye with error bars and linear fit, respectively.
# New Zealand white rabbit [3] = details: 0.0016 mg/ml 3x/day for 24 days
# Description: New Zealand white rabbit right eyes (n=3) were treated with 0.0016 mg/ml CuSO4 3×/day for 24 days. Left eyes were treated with BSS (TID) for 24 days and served as controls. Corneal-OCT pictures were taken at baseline and at day 24.
# [4] = 0.0016 mg/ml CuSO4 for 2 weeks vs untreated, FIG. 2
Compound,toxicity in dissected eye tissues (rabbits),"diopter measurements (mean K and at 3 mm), change vs control groups [1]",corneal biomechanics (rabbit corneas),corneal strength (human cadaver corneas; FIG. 2 legend),LOX enzyme activity (lysyl oxidase (LOX)),LOX enzyme activity (lysyl oxidase (LOX); listed as copper),LNL crosslinking in corneas (New Zealand white rabbit [2]),"histopathological analysis of dissected eyes (albino guinea pigs; 0.0025 mg/ml 3 times per day, approximately 6 weeks, data not shown)","myopic progression (average refractive error) in the treatment eye (albino guinea pigs; 0.0025 mg/ml eye drop 3 times per day for approximately 6 weeks, OD vs vehicle OS, FIGS. 7A-7B)","IOP measurements (albino guinea pigs; all eyes during the study, within normal limits, data not shown)",cornea epithelial layer by OCT / gross toxicity to the corneas (New Zealand white rabbit [3]),slit-lamp examination (New Zealand white rabbit [3]),"central cornea flattening by OCT (New Zealand white rabbit [3]; right eyes n=3 vs BSS left eyes, FIGS. 6A-6F)",corneal stiffness (human cadaver corneas; [4]),radial strain (human cadaver corneas; [4]),"average peak radial strain induced by ocular pulse, treated vs untreated corneas (human cadaver corneas; at 20 mmHg)","increase in corneal strength (human cadaver corneas; from peak radial strain at 20 mmHg, treated vs untreated)"
"[Cu] [Cu, copper]",no observed toxicity,decreased,improved,increased,increased,dramatically increased,,,,,,,,,,,
"O.O.O.O.O.O=S(=O)([O-])[O-].[Cu+2] [CuSO4 pentahydrate, copper (II) sulfate pentahydrate]",,,comparable to that seen with laser cross-linking,,,,increased,no observed toxicity,effective in reducing myopic progression,15-25 mmHg,,,,,,,
"O=S(=O)([O-])[O-].[Cu+2] [CuSO4, copper (II) sulfate]",,greater decrease,,,,,,,,,no gross toxicity,no inflammation or opacification,cornea flattening in all 3 treatment eyes,marked increase,decrease,about 1.5 times lower,~50%
